Measured values from patent publication US6737383B1, “Herbicidal oxadiazolidines” (priority 1999, dated 2004).

Tests used:
wheat = assay: Test B pre/postemergence wheat; type: in vivo, Triticum aestivum; conditions: for Wheat plant response rating: scale of 0 to 10 where 0 is no effect and 10 is complete control
Outline: (§1)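 Herbicidal effect was estimated by eye on a ten-point control scale after plants spent twelve to sixteen days in a greenhouse following soil or foliar treatment. Foliar sprays targeted plants at one to four leaves; all doses were formulated in a non-phytotoxic solvent with surfactant.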

crabgrass = assay: Test B pre/postemergence crabgrass; type: in vivo, Digitaria sanguinalis; conditions: for Crabgrass plant response rating: scale of 0 to 10 where 0 is no effect and 10 is complete control
Outline: as §1

giant foxtail = assay: Test B pre/postemergence giant foxtail; type: in vivo, Setaria faberii; conditions: for Giant foxtail plant response rating: scale of 0 to 10 where 0 is no effect and 10 is complete control
Outline: as §1

rape = assay: Test B pre/postemergence rape; type: in vivo, Brassica napus; conditions: for Rape plant response rating: scale of 0 to 10 where 0 is no effect and 10 is complete control
Outline: as §1

duck salad = assay: Test B flood test duck salad; type: in vivo, Heteranthera limosa
Outline: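 Plants were grown to the 2-leaf stage before treatment with test chemical, then held in a greenhouse for twelve to sixteen days. Injury was visually rated against untreated controls on a 0–10 scale, where 0 is no effect and 10 is complete control.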

morningglory = assay: Test B pre/postemergence morningglory; type: in vivo, Ipomoea hederacea; conditions: for Morningglory plant response rating: scale of 0 to 10 where 0 is no effect and 10 is complete control
Outline: as §1

cocklebur = assay: Test B pre/postemergence cocklebur; type: in vivo, Xanthium strumarium; conditions: for Cocklebur plant response rating: scale of 0 to 10 where 0 is no effect and 10 is complete control
Outline: as §1

soybean = assay: Test B pre/postemergence soybean; type: in vivo, Glycine max; conditions: for Soybean plant response rating: scale of 0 to 10 where 0 is no effect and 10 is complete control
Outline: as §1

bedstraw = assay: Test B pre/postemergence bedstraw; type: in vivo, Galium aparine; conditions: Postemergence
Outline: as §1

pigweed = assay: Test B pre/postemergence pigweed; type: in vivo, Amaranthus retroflexus; conditions: for Redroot pigweed plant response rating: scale of 0 to 10 where 0 is no effect and 10 is complete control
Outline: as §1

corn = assay: Test B pre/postemergence corn; type: in vivo, Zea mays; conditions: for Corn plant response rating: scale of 0 to 10 where 0 is no effect and 10 is complete control
Outline: as §1

purple nutsedge = assay: Test B pre/postemergence purple nutsedge; type: in vivo, Cyperus rotundus; conditions: for Nutsedge plant response rating: scale of 0 to 10 where 0 is no effect and 10 is complete control
Outline: as §1

sugar beet = assay: Test B pre/postemergence sugar beet; type: in vivo, Beta vulgaris; conditions: for Sugarbeets plant response rating: scale of 0 to 10 where 0 is no effect and 10 is complete control
Outline: as §1

surinam grass = assay: Test B pre/postemergence surinam grass; type: in vivo, Brachiaria decumbens; conditions: for B. signalgrass plant response rating: scale of 0 to 10 where 0 is no effect and 10 is complete control
Outline: as §1

velvetleaf = assay: Test B pre/postemergence velvetleaf; type: in vivo, Abutilon theophrasti; conditions: for Velvetleaf plant response rating: scale of 0 to 10 where 0 is no effect and 10 is complete control
Outline: as §1

[1] = Postemergence, Rate 125 g/ha, scale 0 to 10, 0 is no effect, 10 is complete control
[2] = Postemergence, Rate 250 g/ha, scale 0 to 10, 0 is no effect, 10 is complete control
[3] = Preemergence, Rate 62 g/ha, scale 0 to 10 (0 no effect, 10 complete control)
[4] = Rate 500 g/ha, Postemergence, scale 0 to 10, 0 no effect, 10 complete control

CC(C)N(C(=O)n1oc(=O)n(N2C(C)CCCC2C)c1=O)c1ccc(F)cc1 (stereo not shown) [Compound 382]
3: Plant response rating, Giant foxtail (giant foxtail; [1]) | Plant response rating, Giant foxtail (giant foxtail; [2]) | Plant response rating, Soybean (soybean; [1])
1: Plant response rating, Crabgrass (crabgrass; [4]) | Soybean plant response rating (soybean; Rate 62 g/ha, Postemergence)
9: Crabgrass plant response rating (crabgrass; Preemergence, Rate 250 g/ha) | Plant response rating, Giant foxtail (giant foxtail; [3]) | Giant foxtail plant response rating (0 to 10 scale) (giant foxtail; Preemergence, Rate 125 g/ha) | Giant foxtail plant response rating (giant foxtail; Preemergence, Rate 250 g/ha)
6: Plant response rating, Crabgrass (crabgrass; [3]) | B. signalgrass plant response rating (surinam grass; Preemergence, Rate 500 g/ha)
4: Plant response rating, Giant foxtail (giant foxtail; [4]) | Plant response rating, Soybean (soybean; [2]) | Plant response rating, Bedstraw (bedstraw; Rate 250 g/ha, scale 0 to 10, 0 is no effect, 10 is complete control) | Plant response rating, Bedstraw (bedstraw; Rate 500 g/ha, scale 0 to 10, 0 no effect, 10 complete control)
10: Crabgrass plant response rating (crabgrass; Preemergence, Rate 500 g/ha) | Giant foxtail plant response rating (giant foxtail; Preemergence, Rate 500 g/ha)
7: Crabgrass plant response rating (0 to 10 scale) (crabgrass; Preemergence, Rate 125 g/ha)
5: Plant response rating, Soybean (soybean; [4])
2: Corn plant response rating (corn; Preemergence, Rate 500 g/ha) | B. signalgrass plant response rating (surinam grass; Preemergence, Rate 250 g/ha)
0: Plant response rating, Wheat (wheat; [1]) | Plant response rating, Wheat (wheat; [2]) | Plant response rating, Wheat (wheat; [3]) | Wheat plant response rating (0 to 10 scale) (wheat; Preemergence, Rate 125 g/ha) | Wheat plant response rating (wheat; Preemergence, Rate 250 g/ha) | Wheat plant response rating (wheat; Preemergence, Rate 500 g/ha) | Wheat plant response rating (wheat; Rate 62 g/ha, Postemergence) | Plant response rating, Wheat (wheat; [4]) | Plant response rating, Crabgrass (crabgrass; [1]) | Plant response rating, Crabgrass (crabgrass; [2]) | Crabgrass plant response rating (crabgrass; Rate 62 g/ha, Postemergence) | Giant foxtail plant response rating (giant foxtail; Rate 62 g/ha, Postemergence) | Plant response rating, Rape (rape; [1]) | Plant response rating, Rape (rape; [2]) | Plant response rating, Rape (rape; [3]) | Rape plant response rating (0 to 10 scale) (rape; Preemergence, Rate 125 g/ha) | Rape plant response rating (rape; Preemergence, Rate 250 g/ha) | Rape plant response rating (rape; Preemergence, Rate 500 g/ha) | Rape plant response rating (rape; Rate 62 g/ha, Postemergence) | Plant response rating, Rape (rape; [4]) | Plant response rating, Ducksalad (0 to 10 scale, 0 is no effect, 10 is complete control) (duck salad; Rate 62 g/ha, flood test species, Pre-emergence, visual evaluation after twelve to sixteen days) | Ducksalad plant response rating (0 to 10 scale, 0 is no effect, 10 is complete control) (duck salad; Rate 125 g/ha, under heading Pre-emergence, flood test species, visual evaluation after twelve to sixteen days) | Ducksalad plant response rating (duck salad; Rate 250 g/ha, Pre-emergence, flood-test species, scale 0 to 10, 0 is no effect, 10 is complete control) | Ducksalad plant response rating (duck salad; Rate 500 g/ha, Pre-emergence, flood test species, scale 0 to 10 (0 no effect, 10 complete control)) | Plant response rating, Morningglory (morningglory; [1]) | Plant response rating, Morningglory (morningglory; [2]) | Plant response rating, Morningglory (morningglory; [3]) | Morningglory plant response rating (0 to 10 scale) (morningglory; Preemergence, Rate 125 g/ha) | Morningglory plant response rating (morningglory; Preemergence, Rate 250 g/ha) | Morningglory plant response rating (morningglory; Preemergence, Rate 500 g/ha) | Morningglory plant response rating (morningglory; Rate 62 g/ha, Postemergence) | Plant response rating, Morningglory (morningglory; [4]) | Plant response rating, Cocklebur (cocklebur; [1]) | Plant response rating, Cocklebur (cocklebur; [2]) | Plant response rating, Cocklebur (cocklebur; [3]) | Cocklebur plant response rating (0 to 10 scale) (cocklebur; Preemergence, Rate 125 g/ha) | Cocklebur plant response rating (cocklebur; Preemergence, Rate 250 g/ha) | Cocklebur plant response rating (cocklebur; Rate 62 g/ha, Postemergence) | Plant response rating, Cocklebur (cocklebur; [4]) | Plant response rating, Soybean (soybean; [3]) | Soybean plant response rating (0 to 10 scale) (soybean; Preemergence, Rate 125 g/ha) | Soybean plant response rating (soybean; Preemergence, Rate 250 g/ha) | Soybean plant response rating (soybean; Preemergence, Rate 500 g/ha) | Plant response rating, Redroot pigweed (pigweed; [1]) | Plant response rating, Redroot pigweed (pigweed; [2]) | Plant response rating, Redroot pigweed (pigweed; [3]) | Redroot pigweed plant response rating (0 to 10 scale) (pigweed; Preemergence, Rate 125 g/ha) | Redroot pigweed plant response rating (pigweed; Preemergence, Rate 250 g/ha) | Redroot pigweed plant response rating (pigweed; Preemergence, Rate 500 g/ha) | Redroot pigweed plant response rating (pigweed; Rate 62 g/ha, Postemergence) | Plant response rating, Redroot pigweed (pigweed; [4]) | Plant response rating, Corn (corn; [1]) | Plant response rating, Corn (corn; [2]) | Plant response rating, Corn (corn; [3]) | Corn plant response rating (0 to 10 scale) (corn; Preemergence, Rate 125 g/ha) | Corn plant response rating (corn; Preemergence, Rate 250 g/ha) | Corn plant response rating (corn; Rate 62 g/ha, Postemergence) | Plant response rating, Corn (corn; [4]) | Plant response rating, Nutsedge (purple nutsedge; [1]) | Plant response rating, Nutsedge (purple nutsedge; [2]) | Plant response rating, Nutsedge (purple nutsedge; [3]) | Nutsedge plant response rating (0 to 10 scale) (purple nutsedge; Preemergence, Rate 125 g/ha) | Nutsedge plant response rating (purple nutsedge; Preemergence, Rate 250 g/ha) | Nutsedge plant response rating (purple nutsedge; Preemergence, Rate 500 g/ha) | Nutsedge plant response rating (purple nutsedge; Rate 62 g/ha, Postemergence) | Plant response rating, Nutsedge (purple nutsedge; [4]) | Plant response rating, Sugarbeets (sugar beet; [1]) | Plant response rating, Sugarbeets (sugar beet; [2]) | Plant response rating, Sugarbeets (sugar beet; [3]) | Sugarbeets plant response rating (0 to 10 scale) (sugar beet; Preemergence, Rate 125 g/ha) | Sugarbeets plant response rating (sugar beet; Preemergence, Rate 250 g/ha) | Sugarbeets plant response rating (sugar beet; Preemergence, Rate 500 g/ha) | Sugarbeets plant response rating (sugar beet; Rate 62 g/ha, Postemergence) | Plant response rating, Sugarbeets (sugar beet; [4]) | Plant response rating, B. signalgrass (surinam grass; [1]) | Plant response rating, B. signalgrass (surinam grass; [2]) | Plant response rating, B. signalgrass (surinam grass; [3]) | B. signalgrass plant response rating (0 to 10 scale, 0 is no effect, 10 is complete control) (surinam grass; Preemergence, Rate 125 g/ha) | B. signalgrass plant response rating (surinam grass; Rate 62 g/ha, Postemergence) | Plant response rating, B. signalgrass (surinam grass; [4]) | Plant response rating, Velvetleaf (velvetleaf; [1]) | Plant response rating, Velvetleaf (velvetleaf; [2]) | Plant response rating, Velvetleaf (velvetleaf; [3]) | Velvetleaf plant response rating (0 to 10 scale) (velvetleaf; Preemergence, Rate 125 g/ha) | Velvetleaf plant response rating (velvetleaf; Preemergence, Rate 250 g/ha) | Velvetleaf plant response rating (velvetleaf; Preemergence, Rate 500 g/ha) | Velvetleaf plant response rating (velvetleaf; Rate 62 g/ha, Postemergence) | Plant response rating, Velvetleaf (velvetleaf; [4])
